Tested on: HeLa cells
Experiment: Cytotoxicity test (MTT) with and without near infrared irradiation
Format: cell-based
Method: Cytotoxicity test was conducted on the nano-microsphere according to the present invention prepared from Example 1. HeLa cells as cancer cells were incubated in the RPMI 1640 culture medium containing 10% FBS and 1% penicillin in the presence of 5% CO2 at a temperature of 37° C. Then, for the cytotoxicity test, the incubated HeLa cells were dispensed on a 96-well plate at a cell number of 1×10^4 and then incubated for 24 hours. Next day, the nano-microspheres (nano-microspheres added with 1.25 mg of a photosensitizer) according to the present invention were diluted by concentrations, respectively, and then the diluted concentrations were put into each well at 100 μl.
After that, the cells were further incubated for 12 hours so that the nano-microspheres can act on the cells, and then near infrared wavelength light (670 nm) was irradiated at an amount of 1.2 J/cm^2. […]
Lastly, 20 μl of MTT reagent (3-(4,5-dimethylthiazol-2yl)-2,5-diphenyl-2H-tetrazolium bromide) was added to the cells after incubation was completed, followed by again incubating for 3˜4 hours. […] After that, the ELIZA analyzer was used to measure absorbance at 595 nm and thus comparison of the amount of formazan formed was conducted, to thereby confirm cell viability (%) and cytotoxicity of the conjugate (FIGS. 15 and 16).

## CCCC(C)(C)c1cc(Oc2ccc3c(c2)/C2=N/c4c5ccc(Oc6cc(C(C)(C)CCC)c(OC)cc6C(C)(C)CCC)cc5c5[n]4[Zn][n]4/c(c6ccc(Oc7cc(C(C)(C)CCC)c(OC)cc7C(C)(C)CCC)cc6/c4=N/C3=N2)=N\C2=NC(=N\5)/c3ccc(Oc4ccc(C(=O)O)cc4)cc32)c(C(C)(C)CCC)cc1OC [Zn-Pc-COOH]
Near infrared ray (670 nm, 1.2 J/cm^2) irradiated
  apoptosis / cell viability (%): apoptosis occurred in proportional to the time for irradiation
Near infrared ray not irradiated
  apoptosis / cell viability (%): apoptosis did not occur
